This note sets out measurements from patent US9594084B2, “Phosphorylation of histones and uses thereof” (H. LEE MOFFITT CANCER CENTER AND RESEARCH INSTITUTE, priority 2012, dated 2017).

For assay [1], the system named is NPAT and RNA polymerase II at Site II. As to the kind of experiment: ChIP-qPCR with NPAT or RNA Pol II antibodies at Site II in synchronized MEFs. It counts as cell-based, mouse. The settings on record: 6.30 hours post-release. The method, then: FIG. 3B-3F are graphs showing histone RNA (relative to actin) in wildtype (WT) and Y40A mutant yeast cells treated with α-factor for 3 hours, washed and harvested at indicated time points post-release. Total RNA was prepared followed by qRT-PCR for histones transcripts. FACS analysis of yeast cells was performed to determine exit of cells from […] (0 minutes) and entry into cell cycle. Data are representative of three independent experiments. The p values for 30 minutes are as follows: #p=0.024; ##p=0.008; ###p=0.0083; ####p=0.037. FIG. 3G to 3H are graphs showing ChIP (% input DNA) in synchronized MEFs treated with WEE1 inhibitor or untreated and harvested 6.30 hours post-release. ChIP was performed using NPAT and IgG antibodies (FIG. 3G) or RNA Pol II and IgG (FIG. 3H) followed by qPCR using primers corresponding to Site II. *p=0.0018, **p=0.01. FIG. 3I is an immunoblot showing total histones prepared from synchronized WT (first three columns) and Y40A mutant yeast cells (last three columns) 0, 20, and 30 minutes post release that were immunoprecipitated with pTyr37-H2B antibodies and immunoblotted with yeast H2B antibodies (upper panel) or yeast tubulin antibodies (bottom panel). […]
To understand the potential mechanism of repression of histone transcription the role of NPAT was assessed. […]
(Real-time PCR tracks product formation cycle by cycle.)

In assay [2] the test system is pY37-H2B epigenetic marks within IDH2. As to the kind of experiment: Directed ChIP-PCR of pY37-H2B marks in IDH2 coding region, synchronized MEFs. It counts as cell-based, mouse.

As to `C=CCn1c(=O)c2cnc(Nc3ccc(N4CCN(C)CC4)cc3)nc2n1-c1cccc(C(C)(C)O)n1` [MK-1775], in assay [1], the “recruitment of NPAT at Site II” value is on record as “binding was detected” and the “recruitment of RNA polymerase II at Site II” value is recorded as “binding was detected”. Besides, the “deposition of pY37-H2B epigenetic marks in the IDH2 coding region” value in assay [2] was “abolished”.
